# Measurements from patent US11884669B1, “Pyrrolo[3,2-c][1,7]naphthyridine-2-carboxylic acid compounds as CK2 inhibitors” (KING FAISAL UNIVERSITY, priority 2023, dated 2024).
# Key:
# PC3 (prostate) = assay: In vitro cytotoxic activity MTT assay, PC3; type: cell-based; settings: Homo sapiens, 96 hours exposure, read-out: IC50, 50% inhibition of cell proliferation
# Experimental: (§1) Compounds 1-16 were screened for their in vitro cytotoxic activity utilizing a 3-(4,5-dimethyl-thiazol-2-yl)-2,5-diphenyltetrazolium bromide (MTT) assay against selected cancer human cell lines consisting of PC3 (prostate), HCT116 (colon), A375 (melanoma), H1299 (lung), MIAPaCa-2 (pancreas), HL60 (leukemia), MCF7 (breast), MDA-MB-231 (breast) (T. Mosmann, J. Immunol. Meth., 1983, 65, 55-63). The cells were cultured at 37° C. in RMPI1640 medium supplemented with 10% fetal bovine serum, 50 IU/mL penicillin, and 50 μg/mL streptomycin in a 5% CO2 incubator. All cells were sub-cultured 3 times/week by trypsinisation. Viable cells were seeded and allowed to adhere for 12 h before a test drug was added in 96-well plates at an initial density of 1.0×10^5 cells/mL. Tumor cell lines were separately exposed to various concentrations of the tested compounds followed by incubation at a temperature of 37° C. during 96 h inside a medium of fresh RMPI 1640. Cells were subsequently incubated at 37° C. using MTT at 0.5 mg/mL during 4 h. After removal of supernatant, formazan crystals were dissolved in isopropanol and the optical density was measured at 570 nm. CX-4945 was used as a positive control.
# HCT116 (colon) = assay: In vitro cytotoxic activity MTT assay, HCT116; type: cell-based; settings: Homo sapiens, HCT-116, 96 hours exposure, read-out: IC50, 50% inhibition of cell proliferation
# Experimental: as §1
# A375 (melanoma) = assay: In vitro cytotoxic activity MTT assay, A375; type: cell-based; settings: Homo sapiens, A-375, 96 hours exposure, read-out: IC50, 50% inhibition of cell proliferation
# Experimental: as §1
# H1299 (lung) = assay: In vitro cytotoxic activity MTT assay, H1299; type: cell-based; settings: Homo sapiens, NCI-H1299, 96 hours exposure, read-out: IC50, 50% inhibition of cell proliferation
# Experimental: as §1
# MIAPaCa-2 (pancreas) = assay: In vitro cytotoxic activity MTT assay, MIAPaCa-2; type: cell-based; settings: Homo sapiens, MIA PaCa-2, 96 hours exposure, read-out: IC50, 50% inhibition of cell proliferation
# Experimental: as §1
# HL60 (leukemia) = assay: In vitro cytotoxic activity MTT assay, HL60; type: cell-based; settings: Homo sapiens, HL-60, 96 hours exposure, read-out: IC50, 50% inhibition of cell proliferation
# Experimental: as §1
# MCF7 (breast) = assay: In vitro cytotoxic activity MTT assay, MCF7; type: cell-based; settings: Homo sapiens, 96 hours exposure, read-out: IC50, 50% inhibition of cell proliferation
# Experimental: as §1
# MDA-MB-231 (breast) = assay: In vitro cytotoxic activity MTT assay, MDA-MB-231; type: cell-based; settings: Homo sapiens, 96 hours exposure, read-out: IC50, 50% inhibition of cell proliferation
# Experimental: as §1
# [1] = biological target: T1, recombinant human CK2 (RRββ-holoenzyme) (Homo sapiens, UniProt P68400); assay: CK2 Kinase Assay (33P-ATP, filter plate); type: biochemical; settings: final ATP concentration 15 μM, 10 min at 30° C.; read-out: protein kinase CK2 IC50
# T1 construct: purchased Millipore
# T1 sequence (P68400 whole entry): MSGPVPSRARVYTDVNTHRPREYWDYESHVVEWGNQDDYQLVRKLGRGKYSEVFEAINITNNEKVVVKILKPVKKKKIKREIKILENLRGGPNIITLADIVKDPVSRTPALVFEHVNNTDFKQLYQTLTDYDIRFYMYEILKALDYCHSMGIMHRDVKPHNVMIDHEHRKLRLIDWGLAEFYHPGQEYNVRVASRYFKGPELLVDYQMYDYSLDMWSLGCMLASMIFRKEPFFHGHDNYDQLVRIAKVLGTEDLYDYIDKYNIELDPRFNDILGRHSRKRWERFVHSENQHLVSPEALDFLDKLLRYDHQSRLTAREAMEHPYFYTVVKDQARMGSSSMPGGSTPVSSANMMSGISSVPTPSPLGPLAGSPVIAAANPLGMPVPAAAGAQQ
# T1 sequence (P67870 whole entry partner): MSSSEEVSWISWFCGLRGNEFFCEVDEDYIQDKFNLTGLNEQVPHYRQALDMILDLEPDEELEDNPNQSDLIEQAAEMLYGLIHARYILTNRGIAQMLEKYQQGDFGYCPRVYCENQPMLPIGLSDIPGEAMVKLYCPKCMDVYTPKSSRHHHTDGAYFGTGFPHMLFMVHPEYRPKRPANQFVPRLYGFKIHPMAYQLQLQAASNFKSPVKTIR
# Experimental: CK2 Kinase Assay was conducted using the protocol as described in Pierre F. et al; J. Med. Chem. 2011, 54, 635-654. The tested compounds in aqueous solution were added at a volume of 10 μL to a reaction mixture comprising 10 μL of assay dilution buffer (ADB; 20 mM MOPS, pH 7.2, 25 mM β-glycerol phosphate, 5 mM EGTA, 1 mM sodium orthovanadate, and 1 mM dithiothreitol), 10 μL of substrate peptide (RRRDDDSDDD, dissolved in ADB at a concentration of 1 mM), 10 μL of recombinant human CK2 (RRββ-holoenzyme, 25 ng dissolved in ADB; Millipore). Reactions were initiated by the addition of 10 μL of ATP solution (90% 75 mMMgCl2, 75 μM ATP (final ATP concentration: 15 μM) dissolved in ADB; 10% [γ-33P] ATP (stock 1mCi/100 μL; 3000 Ci/mmol (Perkin-Elmer) and maintained for 10 min at 30° C. The reactions were quenched with 100 μL of 0.75% phosphoric acid and then transferred to and filtered through a phosphor cellulose filter plate (Millipore). After washing each well five times with 0.75% phosphoric acid, the plate was dried under vacuum for 5 min and, following the addition of 15 μL of scintillation fluid to each well, the residual radioactivity was measured using a Wallac […]. The IC50 values were derived from eight concentrations of test inhibitors.
compound,measurement,setting,value
"O=C(O)c1cc2c(Nc3cccc(Cl)c3)nc3cnccc3c2[nH]1 [Example 1, 4-((3-chlorophenyl)amino)-1H-pyrrolo[3,2-c][1,7]naphthyridine-2-carboxylic acid]",IC50,PC3 (prostate),2300 nM
same,IC50,HCT116 (colon),1100 nM
same,IC50,A375 (melanoma),3200 nM
same,IC50,H1299 (lung),1600 nM
same,IC50,MIAPaCa-2 (pancreas),1400 nM
same,IC50,HL60 (leukemia),2000 nM
same,IC50,MCF7 (breast),3900 nM
same,IC50,MDA-MB-231 (breast),3500 nM
same,IC50,[1],31 nM
